Results as given in ChEMBL document CHEMBL3991601, “The target landscape of clinical kinase drugs” (Science, 2017).
Calls of active or inactive are those of the source. Rule as the data show it, for most assays here: actives have a measured Kd and inactives only a lower limit.

Columns and labels:
[1] = molecular target: T1, ATP-dependent RNA helicase DDX1 (Homo sapiens, UniProt Q92499)
T1 sequence (Q92499 whole entry): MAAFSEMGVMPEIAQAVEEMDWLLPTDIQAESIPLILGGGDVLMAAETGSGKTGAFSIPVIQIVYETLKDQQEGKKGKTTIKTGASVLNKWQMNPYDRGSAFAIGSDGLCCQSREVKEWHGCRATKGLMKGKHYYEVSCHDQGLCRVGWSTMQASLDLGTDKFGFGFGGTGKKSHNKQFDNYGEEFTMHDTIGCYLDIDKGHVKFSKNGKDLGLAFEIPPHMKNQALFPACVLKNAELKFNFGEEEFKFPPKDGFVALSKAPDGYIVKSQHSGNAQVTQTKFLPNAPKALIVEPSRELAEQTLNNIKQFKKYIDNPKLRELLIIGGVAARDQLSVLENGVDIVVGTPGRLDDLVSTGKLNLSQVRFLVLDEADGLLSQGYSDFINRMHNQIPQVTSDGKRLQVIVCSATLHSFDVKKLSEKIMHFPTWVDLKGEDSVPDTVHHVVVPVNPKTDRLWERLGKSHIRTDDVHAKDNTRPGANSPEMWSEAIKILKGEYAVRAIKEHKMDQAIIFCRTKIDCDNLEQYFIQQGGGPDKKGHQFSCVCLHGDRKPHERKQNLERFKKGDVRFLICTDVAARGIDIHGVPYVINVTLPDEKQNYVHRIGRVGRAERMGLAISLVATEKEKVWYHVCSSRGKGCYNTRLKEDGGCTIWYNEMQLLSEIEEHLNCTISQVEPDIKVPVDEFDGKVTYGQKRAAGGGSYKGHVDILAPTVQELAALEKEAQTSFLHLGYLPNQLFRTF

[2] = molecular target: T2, Ras-related protein Rab-27A (Homo sapiens, UniProt P51159)
T2 sequence (P51159 whole entry): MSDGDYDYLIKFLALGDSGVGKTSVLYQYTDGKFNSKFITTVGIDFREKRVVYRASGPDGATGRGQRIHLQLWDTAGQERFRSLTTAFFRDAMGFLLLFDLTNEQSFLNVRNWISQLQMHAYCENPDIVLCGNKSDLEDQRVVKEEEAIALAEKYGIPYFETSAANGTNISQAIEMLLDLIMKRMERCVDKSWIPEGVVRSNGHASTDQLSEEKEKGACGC

[3] = molecular target: cAMP-dependent protein kinase catalytic subunit beta (Homo sapiens, UniProt P22694)
[4] = molecular target: T3, Mitogen-activated protein kinase kinase kinase kinase 3 (Homo sapiens, UniProt Q8IVH8)
T3 sequence (Q8IVH8 whole entry): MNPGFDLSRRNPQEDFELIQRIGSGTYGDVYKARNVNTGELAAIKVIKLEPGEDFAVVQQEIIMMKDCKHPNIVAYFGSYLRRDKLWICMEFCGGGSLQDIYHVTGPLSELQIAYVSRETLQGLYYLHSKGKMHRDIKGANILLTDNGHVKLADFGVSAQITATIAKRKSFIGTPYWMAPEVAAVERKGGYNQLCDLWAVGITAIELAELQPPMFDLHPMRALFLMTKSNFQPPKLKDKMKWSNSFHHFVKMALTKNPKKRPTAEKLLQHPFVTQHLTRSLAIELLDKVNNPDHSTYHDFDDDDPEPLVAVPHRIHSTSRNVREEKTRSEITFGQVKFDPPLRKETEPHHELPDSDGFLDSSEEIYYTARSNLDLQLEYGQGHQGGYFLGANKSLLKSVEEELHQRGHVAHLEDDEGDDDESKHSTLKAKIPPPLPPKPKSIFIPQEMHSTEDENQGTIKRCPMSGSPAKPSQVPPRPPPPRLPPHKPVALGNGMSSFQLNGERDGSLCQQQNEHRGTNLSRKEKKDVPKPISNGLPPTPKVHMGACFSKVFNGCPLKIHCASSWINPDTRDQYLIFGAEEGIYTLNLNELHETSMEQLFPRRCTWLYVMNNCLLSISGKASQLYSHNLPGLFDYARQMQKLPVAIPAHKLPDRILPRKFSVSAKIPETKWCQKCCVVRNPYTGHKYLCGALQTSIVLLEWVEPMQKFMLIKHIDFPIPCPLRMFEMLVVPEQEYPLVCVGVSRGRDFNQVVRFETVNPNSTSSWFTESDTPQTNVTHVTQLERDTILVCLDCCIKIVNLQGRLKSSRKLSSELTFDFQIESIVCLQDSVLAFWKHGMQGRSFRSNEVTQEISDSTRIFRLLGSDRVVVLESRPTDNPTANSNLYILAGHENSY

[5] = molecular target: Casein kinase I isoform delta (Homo sapiens, UniProt P48730)
[6] = molecular target: Tyrosine-protein kinase Fer (Homo sapiens, UniProt P16591)
[7] = molecular target: Cyclin-dependent kinase 12 (Homo sapiens, UniProt Q9NYV4)
[8] = molecular target: Protein-tyrosine kinase 2-beta (Homo sapiens, UniProt Q14289)
[9] = molecular target: T4, Serine/threonine-protein kinase ICK (Homo sapiens, UniProt Q9UPZ9)
T4 sequence (Q9UPZ9 whole entry): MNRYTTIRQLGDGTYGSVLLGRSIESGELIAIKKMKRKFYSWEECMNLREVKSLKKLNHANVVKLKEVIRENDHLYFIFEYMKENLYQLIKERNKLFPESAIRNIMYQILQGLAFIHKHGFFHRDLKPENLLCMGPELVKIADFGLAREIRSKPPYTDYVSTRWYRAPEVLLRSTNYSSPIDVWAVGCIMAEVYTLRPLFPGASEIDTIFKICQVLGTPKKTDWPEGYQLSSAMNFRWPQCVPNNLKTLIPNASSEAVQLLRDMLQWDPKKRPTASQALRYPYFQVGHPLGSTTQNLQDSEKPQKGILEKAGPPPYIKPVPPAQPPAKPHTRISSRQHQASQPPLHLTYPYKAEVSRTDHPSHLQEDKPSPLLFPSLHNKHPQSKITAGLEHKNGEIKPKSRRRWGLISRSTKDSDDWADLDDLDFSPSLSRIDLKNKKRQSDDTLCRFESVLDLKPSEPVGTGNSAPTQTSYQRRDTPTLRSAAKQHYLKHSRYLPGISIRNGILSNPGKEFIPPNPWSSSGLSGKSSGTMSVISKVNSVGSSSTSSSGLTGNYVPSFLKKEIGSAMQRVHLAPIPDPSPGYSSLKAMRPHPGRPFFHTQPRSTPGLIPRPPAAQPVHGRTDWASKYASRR

[10] = molecular target: Non-receptor tyrosine-protein kinase TYK2 (Homo sapiens, UniProt P29597)
[11] = molecular target: Mitotic checkpoint serine/threonine-protein kinase BUB1 (Homo sapiens, UniProt O43683)
[12] = molecular target: Tyrosine-protein kinase JAK1 (Homo sapiens, UniProt P23458)

Measured: Kd
Also: in the data inactive means no Kd found up to 30 µM.

Sequence of Tyrosine-protein kinase JAK1 (P23458 whole entry): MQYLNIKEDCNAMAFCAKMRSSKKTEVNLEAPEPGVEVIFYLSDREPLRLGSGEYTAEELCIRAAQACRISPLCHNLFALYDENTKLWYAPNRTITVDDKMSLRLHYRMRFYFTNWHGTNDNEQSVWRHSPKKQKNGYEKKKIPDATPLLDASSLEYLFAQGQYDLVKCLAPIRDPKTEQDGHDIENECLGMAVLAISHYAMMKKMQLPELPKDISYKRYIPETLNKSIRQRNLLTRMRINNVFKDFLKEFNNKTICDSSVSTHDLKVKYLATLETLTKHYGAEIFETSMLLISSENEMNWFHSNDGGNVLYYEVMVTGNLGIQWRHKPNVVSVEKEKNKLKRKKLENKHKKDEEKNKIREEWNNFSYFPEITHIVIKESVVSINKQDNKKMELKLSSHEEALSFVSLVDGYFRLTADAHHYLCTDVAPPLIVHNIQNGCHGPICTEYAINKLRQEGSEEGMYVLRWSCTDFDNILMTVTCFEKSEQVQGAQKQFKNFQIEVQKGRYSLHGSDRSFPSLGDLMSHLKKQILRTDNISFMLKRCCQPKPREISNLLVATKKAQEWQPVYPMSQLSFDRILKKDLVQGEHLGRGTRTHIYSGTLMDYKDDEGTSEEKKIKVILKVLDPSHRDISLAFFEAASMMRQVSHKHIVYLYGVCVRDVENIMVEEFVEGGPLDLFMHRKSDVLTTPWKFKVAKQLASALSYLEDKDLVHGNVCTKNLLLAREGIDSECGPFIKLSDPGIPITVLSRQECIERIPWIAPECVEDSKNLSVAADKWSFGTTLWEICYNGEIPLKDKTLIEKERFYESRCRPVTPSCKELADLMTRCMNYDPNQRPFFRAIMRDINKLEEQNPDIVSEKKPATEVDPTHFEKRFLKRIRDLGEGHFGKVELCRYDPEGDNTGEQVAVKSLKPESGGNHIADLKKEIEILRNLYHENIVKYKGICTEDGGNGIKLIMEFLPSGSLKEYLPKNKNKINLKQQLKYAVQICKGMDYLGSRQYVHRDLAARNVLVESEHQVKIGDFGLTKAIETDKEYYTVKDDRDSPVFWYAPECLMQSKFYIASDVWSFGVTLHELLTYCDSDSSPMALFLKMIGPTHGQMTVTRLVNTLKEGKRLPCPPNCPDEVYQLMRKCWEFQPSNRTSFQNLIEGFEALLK
Sequence of Tyrosine-protein kinase Fer (P16591 whole entry): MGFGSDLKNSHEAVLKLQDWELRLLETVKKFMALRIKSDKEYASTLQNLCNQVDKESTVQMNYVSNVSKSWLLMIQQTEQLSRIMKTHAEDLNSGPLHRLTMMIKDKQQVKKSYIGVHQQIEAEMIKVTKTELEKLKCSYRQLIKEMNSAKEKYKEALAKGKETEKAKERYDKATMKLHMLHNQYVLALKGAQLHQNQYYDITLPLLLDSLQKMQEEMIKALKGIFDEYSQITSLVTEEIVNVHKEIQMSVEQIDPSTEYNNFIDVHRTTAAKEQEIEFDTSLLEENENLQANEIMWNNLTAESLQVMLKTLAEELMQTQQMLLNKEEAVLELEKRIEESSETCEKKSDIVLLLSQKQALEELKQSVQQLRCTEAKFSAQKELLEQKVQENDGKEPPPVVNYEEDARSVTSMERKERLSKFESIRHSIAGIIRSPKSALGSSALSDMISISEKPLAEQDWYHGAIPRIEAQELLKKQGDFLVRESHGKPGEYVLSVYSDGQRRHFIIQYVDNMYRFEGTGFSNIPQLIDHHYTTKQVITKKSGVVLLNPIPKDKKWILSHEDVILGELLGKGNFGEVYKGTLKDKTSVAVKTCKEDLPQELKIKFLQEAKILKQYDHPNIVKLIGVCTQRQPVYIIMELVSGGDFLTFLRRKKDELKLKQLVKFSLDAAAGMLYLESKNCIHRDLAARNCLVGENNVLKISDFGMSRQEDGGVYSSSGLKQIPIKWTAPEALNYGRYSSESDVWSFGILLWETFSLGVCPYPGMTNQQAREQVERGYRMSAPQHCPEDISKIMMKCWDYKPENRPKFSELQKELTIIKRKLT
Sequence of Mitotic checkpoint serine/threonine-protein kinase BUB1 (O43683 whole entry): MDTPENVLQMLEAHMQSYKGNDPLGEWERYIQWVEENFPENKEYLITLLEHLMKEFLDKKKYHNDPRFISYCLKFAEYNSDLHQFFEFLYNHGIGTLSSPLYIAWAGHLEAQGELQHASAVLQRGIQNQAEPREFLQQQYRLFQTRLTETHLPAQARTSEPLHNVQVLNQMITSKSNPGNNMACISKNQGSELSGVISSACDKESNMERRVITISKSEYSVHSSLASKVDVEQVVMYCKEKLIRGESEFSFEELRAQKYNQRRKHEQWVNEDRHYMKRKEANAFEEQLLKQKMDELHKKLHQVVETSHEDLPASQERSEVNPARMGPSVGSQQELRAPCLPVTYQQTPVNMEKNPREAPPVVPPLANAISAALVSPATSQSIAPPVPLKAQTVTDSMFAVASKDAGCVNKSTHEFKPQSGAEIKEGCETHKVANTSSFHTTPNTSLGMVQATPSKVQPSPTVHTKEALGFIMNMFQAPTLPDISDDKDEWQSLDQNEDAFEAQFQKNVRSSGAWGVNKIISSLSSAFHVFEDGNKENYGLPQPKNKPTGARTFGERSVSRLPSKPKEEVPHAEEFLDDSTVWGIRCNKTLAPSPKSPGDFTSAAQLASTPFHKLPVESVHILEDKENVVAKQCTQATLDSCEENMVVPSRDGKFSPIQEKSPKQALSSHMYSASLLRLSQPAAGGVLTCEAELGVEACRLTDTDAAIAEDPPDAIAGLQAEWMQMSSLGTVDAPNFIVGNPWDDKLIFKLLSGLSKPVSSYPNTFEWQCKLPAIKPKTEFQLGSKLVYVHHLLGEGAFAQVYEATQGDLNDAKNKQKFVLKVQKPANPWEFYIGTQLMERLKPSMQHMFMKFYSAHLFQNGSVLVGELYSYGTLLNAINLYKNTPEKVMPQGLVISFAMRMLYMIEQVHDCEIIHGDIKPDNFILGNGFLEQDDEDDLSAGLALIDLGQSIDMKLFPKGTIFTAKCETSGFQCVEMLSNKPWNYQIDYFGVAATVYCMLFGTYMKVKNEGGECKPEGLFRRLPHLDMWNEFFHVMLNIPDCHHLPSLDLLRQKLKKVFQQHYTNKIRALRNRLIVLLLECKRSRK
Sequence of Non-receptor tyrosine-protein kinase TYK2 (P29597 whole entry): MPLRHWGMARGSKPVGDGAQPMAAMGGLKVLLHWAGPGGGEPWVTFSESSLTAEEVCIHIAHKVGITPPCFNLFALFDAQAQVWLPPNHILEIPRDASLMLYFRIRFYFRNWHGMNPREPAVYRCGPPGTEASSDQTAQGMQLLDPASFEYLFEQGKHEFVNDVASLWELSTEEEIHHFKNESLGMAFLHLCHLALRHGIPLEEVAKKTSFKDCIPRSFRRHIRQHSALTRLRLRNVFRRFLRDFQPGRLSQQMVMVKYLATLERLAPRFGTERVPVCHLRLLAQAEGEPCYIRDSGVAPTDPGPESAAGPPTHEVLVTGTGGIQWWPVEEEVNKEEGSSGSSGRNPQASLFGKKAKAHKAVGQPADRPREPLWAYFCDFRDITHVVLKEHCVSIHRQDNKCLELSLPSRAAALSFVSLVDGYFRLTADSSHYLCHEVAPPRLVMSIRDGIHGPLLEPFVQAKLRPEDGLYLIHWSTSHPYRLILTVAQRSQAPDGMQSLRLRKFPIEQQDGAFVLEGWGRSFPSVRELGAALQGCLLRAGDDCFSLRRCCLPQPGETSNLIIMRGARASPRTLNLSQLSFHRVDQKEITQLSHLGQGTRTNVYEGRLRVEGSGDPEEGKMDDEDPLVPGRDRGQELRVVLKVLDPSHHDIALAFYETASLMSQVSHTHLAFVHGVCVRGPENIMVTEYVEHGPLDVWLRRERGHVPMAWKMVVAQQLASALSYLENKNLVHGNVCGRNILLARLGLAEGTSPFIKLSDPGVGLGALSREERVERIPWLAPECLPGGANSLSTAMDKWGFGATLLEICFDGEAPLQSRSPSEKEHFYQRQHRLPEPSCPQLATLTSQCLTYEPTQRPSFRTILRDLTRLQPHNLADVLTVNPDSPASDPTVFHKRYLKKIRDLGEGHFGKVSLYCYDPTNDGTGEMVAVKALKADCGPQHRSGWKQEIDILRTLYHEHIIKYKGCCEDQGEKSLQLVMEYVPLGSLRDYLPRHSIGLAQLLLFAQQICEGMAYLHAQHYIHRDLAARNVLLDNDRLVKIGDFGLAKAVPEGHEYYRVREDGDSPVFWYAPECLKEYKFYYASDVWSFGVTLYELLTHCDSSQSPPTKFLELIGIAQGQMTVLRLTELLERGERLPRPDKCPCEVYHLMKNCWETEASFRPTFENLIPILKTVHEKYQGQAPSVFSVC
Sequence of Casein kinase I isoform delta (P48730 whole entry, canonical isoform): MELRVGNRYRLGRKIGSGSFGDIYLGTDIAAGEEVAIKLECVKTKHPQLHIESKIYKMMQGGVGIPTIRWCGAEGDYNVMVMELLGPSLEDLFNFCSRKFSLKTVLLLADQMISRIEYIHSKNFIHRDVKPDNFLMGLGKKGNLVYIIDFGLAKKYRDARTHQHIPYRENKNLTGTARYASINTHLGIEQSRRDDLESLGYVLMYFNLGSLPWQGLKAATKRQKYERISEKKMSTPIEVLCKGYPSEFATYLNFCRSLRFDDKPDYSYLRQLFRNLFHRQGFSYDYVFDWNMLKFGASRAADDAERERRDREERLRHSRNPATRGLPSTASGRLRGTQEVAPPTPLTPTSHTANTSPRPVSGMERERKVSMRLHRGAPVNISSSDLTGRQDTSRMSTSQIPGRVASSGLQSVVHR

COCCNCc1ccc(-c2cc3nccc(Oc4ccc(NC(=S)NC(=O)Cc5ccc(F)cc5)cc4F)c3s2)nc1 [GLESATINIB]
inactive: [1] > 30 µM | [2] > 30 µM | [3] > 30 µM | [4] > 30 µM | [5] > 30 µM | [6] > 30 µM | [7] > 30 µM | [8] > 30 µM | [9] > 30 µM | [10] > 30 µM | [11] > 30 µM | [12] > 30 µM

CNS(=O)(=O)Nc1nccc(Cc2c(C)c3ccc(Oc4ncccn4)cc3oc2=O)c1F [AVUTOMETINIB]
inactive: [1] > 30 µM | [2] > 30 µM | [3] > 30 µM | [4] > 30 µM | [5] > 30 µM | [6] > 30 µM | [7] > 30 µM | [8] > 30 µM | [9] > 30 µM | [10] > 30 µM | [11] > 30 µM | [12] > 30 µM
